The source of these data is patent publication US20080114007A1 (priority 2006, published 2008).

For this assay, the target named is CSF-1R (Homo sapiens, UniProt P07333). In words: Peptide (non-phosphorylated) assay, fluorescence polarization competition immunoassay. The conditions noted are these: 0.7 nM CSF-1R, 308 μM SYEGNSYTFIDPTQ peptide, 1 mM ATP, 80 min; mean of at least three determinations; read-out: c-fms Peptide IC50. The class given is biochemical. As for the experimental part: The kinase reaction was initiated by adding 1 μL of 10 mM ATP in assay buffer. […] Positive and negative control wells were included on each plate, where 4% DMSO in assay buffer was substituted for the compound; in addition, positive control wells received 1.2 μL of 50 mM EDTA before the start of the reaction.
Sequence of CSF-1R (P07333 20-972): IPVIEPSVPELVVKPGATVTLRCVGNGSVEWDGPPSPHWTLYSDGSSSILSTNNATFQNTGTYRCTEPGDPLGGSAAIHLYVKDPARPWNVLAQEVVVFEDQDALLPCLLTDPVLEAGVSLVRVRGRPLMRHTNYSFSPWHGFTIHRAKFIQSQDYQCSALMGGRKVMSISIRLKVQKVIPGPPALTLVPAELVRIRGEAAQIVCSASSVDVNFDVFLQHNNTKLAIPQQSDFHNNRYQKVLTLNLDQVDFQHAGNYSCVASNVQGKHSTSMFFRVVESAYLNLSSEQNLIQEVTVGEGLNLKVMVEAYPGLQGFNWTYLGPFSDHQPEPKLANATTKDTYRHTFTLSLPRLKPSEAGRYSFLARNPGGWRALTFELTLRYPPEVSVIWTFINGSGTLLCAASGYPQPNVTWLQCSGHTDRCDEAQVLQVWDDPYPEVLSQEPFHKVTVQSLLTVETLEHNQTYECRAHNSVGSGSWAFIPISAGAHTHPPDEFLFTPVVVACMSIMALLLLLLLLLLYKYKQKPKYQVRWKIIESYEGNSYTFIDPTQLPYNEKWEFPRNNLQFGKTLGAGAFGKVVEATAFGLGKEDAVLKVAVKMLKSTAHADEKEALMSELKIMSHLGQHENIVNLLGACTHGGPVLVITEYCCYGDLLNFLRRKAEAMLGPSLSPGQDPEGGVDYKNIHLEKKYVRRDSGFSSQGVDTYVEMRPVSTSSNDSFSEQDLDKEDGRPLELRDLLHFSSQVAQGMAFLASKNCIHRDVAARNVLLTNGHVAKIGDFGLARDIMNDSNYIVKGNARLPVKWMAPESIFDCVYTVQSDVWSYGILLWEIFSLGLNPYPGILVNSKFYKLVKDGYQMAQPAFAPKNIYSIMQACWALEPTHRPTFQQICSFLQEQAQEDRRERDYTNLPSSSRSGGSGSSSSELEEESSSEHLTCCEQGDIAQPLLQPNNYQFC
The plates were covered and incubated at room temperature for 80 min. Reactions were stopped by addition of 1.2 μL of 50 mM EDTA. Each well then received 10 μL of a 1:1:3 mixture of 10× anti-phosphotyrosine antibody, 10×PTK green tracer, and FP dilution buffer, respectively (Cat. # P2837, Invitrogen, Carlsbad, Calif.). The plates were covered, incubated for 30 min at room temperature, and the fluorescence polarization was read on an Analyst plate reader (Molecular Devices).

For `CONC(=O)c1cn(C2CCCCC2)c2nc(Nc3ccc(C[C@H]4COC(=O)N4)cc3)ncc2c1=O` [Cpd 22, (S)-8-cyclohexyl-5-oxo-2-[4-(2-oxo-oxazolidin-4-ylmethyl)-phenylamino]-5,8-dihydro-pyrido[2,3-d]pyrimidine-6-carboxylic acid methoxy-amide], the IC50 turned out to be 1.5 nM.

As to `CCONC(=O)c1cn(C2CCCCC2)c2nc(Nc3ccc(C[C@H]4COC(=O)N4)cc3)ncc2c1=O` [Cpd 23, (S)-8-cyclohexyl-5-oxo-2-[4-(2-oxo-oxazolidin-4-ylmethyl)-phenylamino]-5,8-dihydro-pyrido[2,3-d]pyrimidine-6-carboxylic acid ethoxy-amide], the IC50 worked out at 3 nM.

On to `CONC(=O)c1cn(C2CCCCC2)c2nc(Nc3ccc(N4CC(C)NC(C)C4)cc3)ncc2c1=O` (stereo not shown) [Cpd 24, 8-cyclohexyl-2-[4-(3,5-dimethyl-piperazin-1-yl)-phenylamino]-5-oxo-5,8-dihydro-pyrido[2,3-d]pyrimidine-6-carboxylic acid methoxy-amide], for which the concentration for half-maximal inhibition (IC50) stood at 1.8 nM.

Turning to `CCONC(=O)c1cn(C2CCCCC2)c2nc(Nc3ccc(N4CC(C)NC(C)C4)cc3)ncc2c1=O` (stereo not shown) [Cpd 25, 8-cyclohexyl-2-[4-(3,5-dimethyl-piperazin-1-yl)-phenylamino]-5-oxo-5,8-dihydro-pyrido[2,3-d]pyrimidine-6-carboxylic acid ethoxy-amide], the IC50 amounted to 2.1 nM.

Turning to `CONC(=O)c1cn(C2CCCCC2)c2nc(Nc3ccc(C4CCNCC4)cc3)ncc2c1=O` [Cpd 26, 8-cyclohexyl-5-oxo-2-(4-piperidin-4-yl-phenylamino)-5,8-dihydro-pyrido[2,3-d]pyrimidine-6-carboxylic acid methoxy-amide], the half-inhibitory concentration (IC50) was found to be 1.4 nM.

For `CCONC(=O)c1cn(C2CCCCC2)c2nc(Nc3ccc(C4CCNCC4)cc3)ncc2c1=O` [Cpd 27, 8-cyclohexyl-5-oxo-2-(4-piperidin-4-yl-phenylamino)-5,8-dihydro-pyrido[2,3-d]pyrimidine-6-carboxylic acid ethoxy-amide], the concentration for half-maximal inhibition (IC50) was 1.6 nM.

On to `CONC(=O)c1cn(C2CCCCC2)c2nc(Nc3ccc(C4CCN(C(C)=O)CC4)cc3)ncc2c1=O` [Cpd 28, 2-[4-(1-acetyl-piperidin-4-yl)-phenylamino]-8-cyclohexyl-5-oxo-5,8-dihydro-pyrido[2,3-d]pyrimidine-6-carboxylic acid methoxy-amide], for which the IC50 is 2.2 nM.

As for `CCONC(=O)c1cn(C2CCCCC2)c2nc(Nc3ccc(C4CCN(C(C)=O)CC4)cc3)ncc2c1=O` [Cpd 29, 2-[4-(1-acetyl-piperidin-4-yl)-phenylamino]-8-cyclohexyl-5-oxo-5,8-dihydro-pyrido[2,3-d]pyrimidine-6-carboxylic acid ethoxy-amide], the concentration for half-maximal inhibition (IC50) was found to be 1 nM.

With `C#Cc1ccc(-n2cc(C(N)=O)c(=O)c3cnc(Nc4ccc(CCN5CCN(C)CC5)cc4)nc32)cc1` [Cpd 30, 8-(4-ethynyl-phenyl)-2-{4-[2-(4-methyl-piperazin-1-yl)-ethyl]-phenylamino}-5-oxo-5,8-dihydro-pyrido[2,3-d]pyrimidine-6-carboxylic acid amide], the concentration for half-maximal inhibition (IC50) is 14 nM.

On to `C#Cc1ccc(-n2cc(C(=O)NOC)c(=O)c3cnc(Nc4ccc(CCN5CCN(C)CC5)cc4)nc32)cc1` [Cpd 31, 8-(4-ethynyl-phenyl)-2-{4-[2-(4-methyl-piperazin-1-yl)-ethyl]-phenylamino}-5-oxo-5,8-dihydro-pyrido[2,3-d]pyrimidine-6-carboxylic acid methoxy-amide], for which the IC50 came out at 2.6 nM.

For the molecule `C#Cc1ccc(-n2cc(C(=O)NOC)c(=O)c3cnc(Nc4ccc(CCN5CCCC5)cc4)nc32)cc1` [Cpd 32, 8-(4-ethynyl-phenyl)-5-oxo-2-[4-(2-pyrrolidin-1-yl-ethyl)-phenylamino]-5,8-dihydro-pyrido[2,3-d]pyrimidine-6-carboxylic acid methoxy-amide], the IC50 was found to be 3.7 nM.

`CN1CCN(CCc2ccc(Nc3ncc4c(=O)c(C(N)=O)cn(-c5ccc(Cl)cc5)c4n3)cc2)CC1` [Cpd 33, 8-(4-chloro-phenyl)-2-{4-[2-(4-methyl-piperazin-1-yl)-ethyl]-phenylamino}-5-oxo-5,8-dihydro-pyrido[2,3-d]pyrimidine-6-carboxylic acid amide]: the IC50 was 20 nM.

As for `CONC(=O)c1cn(-c2ccc(Cl)cc2)c2nc(Nc3ccc(CCN4CCN(C)CC4)cc3)ncc2c1=O` [Cpd 34, 8-(4-chloro-phenyl)-2-{4-[2-(4-methyl-piperazin-1-yl)-ethyl]-phenylamino}-5-oxo-5,8-dihydro-pyrido[2,3-d]pyrimidine-6-carboxylic acid methoxy-amide], the IC50 was 3.8 nM.

On to `CONC(=O)c1cn(C2CCCC2)c2nc(Nc3ccc(N4CCCC4)cc3)ncc2c1=O` [Cpd 35, 8-cyclopentyl-5-oxo-2-(4-pyrrolidin-1-yl-phenylamino)-5,8-dihydro-pyrido[2,3-d]pyrimidine-6-carboxylic acid methoxy-amide], for which the IC50 was determined as 2.2 nM.

`CONC(=O)c1cn(C2CCCC2)c2nc(Nc3ccc(C(=O)N4CCCC4)cc3)ncc2c1=O` [Cpd 36, 8-cyclopentyl-5-oxo-2-[4-(pyrrolidine-1-carbonyl)-phenylamino]-5,8-dihydro-pyrido[2,3-d]pyrimidine-6-carboxylic acid methoxy-amide]: the IC50 worked out at 2.1 nM.

On to `CONC(=O)c1cn(C2CCCC2)c2nc(Nc3ccc(CN4CCCC4=O)cc3)ncc2c1=O` [Cpd 37, 8-cyclopentyl-5-oxo-2-[4-(2-oxo-pyrrolidin-1-ylmethyl)-phenylamino]-5,8-dihydro-pyrido[2,3-d]pyrimidine-6-carboxylic acid methoxy-amide], for which the half-maximal inhibitory concentration (IC50) is 1.5 nM.

In the case of `CONC(=O)c1cn(C2CCCC2)c2nc(Nc3ccc(CCN4CCCC4=O)cc3)ncc2c1=O` [Cpd 38, 8-cyclopentyl-5-oxo-2-{4-[2-(2-oxo-pyrrolidin-1-yl)-ethyl]-phenylamino}-5,8-dihydro-pyrido[2,3-d]pyrimidine-6-carboxylic acid methoxy-amide], the IC50 is 2 nM.

On to `CONC(=O)c1cn(C2CCCC2)c2nc(Nc3ccc(CCN4CCCC4)cc3)ncc2c1=O` [Cpd 39, 8-cyclopentyl-5-oxo-2-[4-(2-pyrrolidin-1-yl-ethyl)-phenylamino]-5,8-dihydro-pyrido[2,3-d]pyrimidine-6-carboxylic acid methoxy-amide], for which the IC50 was found to be 1.1 nM.

Consider `CCONC(=O)c1cn(C2CCCC2)c2nc(Nc3ccc(CCN4CCCC4)cc3)ncc2c1=O` [Cpd 40, 8-cyclopentyl-5-oxo-2-[4-(2-pyrrolidin-1-yl-ethyl)-phenylamino]-5,8-dihydro-pyrido[2,3-d]pyrimidine-6-carboxylic acid ethoxy-amide], for which the IC50 came to 6.8 nM.

On to `CC(C)ONC(=O)c1cn(C2CCCC2)c2nc(Nc3ccc(CCN4CCCC4)cc3)ncc2c1=O` [Cpd 41, 8-cyclopentyl-5-oxo-2-[4-(2-pyrrolidin-1-yl-ethyl)-phenylamino]-5,8-dihydro-pyrido[2,3-d]pyrimidine-6-carboxylic acid isopropoxy-amide], for which the IC50 came to 4.1 nM.

Take `O=C(c1cn(C2CCCC2)c2nc(Nc3ccc(CCN4CCCC4)cc3)ncc2c1=O)N1CCOCC1` [Cpd 42, 8-cyclopentyl-6-(morpholine-4-carbonyl)-2-[4-(2-pyrrolidin-1-yl-ethyl)-phenylamino]-8H-pyrido[2,3-d]pyrimidin-5-one]: the IC50 worked out at 57 nM.

As for `O=C(NCCO)c1cn(C2CCCC2)c2nc(Nc3ccc(CCN4CCCC4)cc3)ncc2c1=O` [Cpd 43, 8-cyclopentyl-5-oxo-2-[4-(2-pyrrolidin-1-yl-ethyl)-phenylamino]-5,8-dihydro-pyrido[2,3-d]pyrimidine-6-carboxylic acid (2-hydroxy-ethyl)-amide], the IC50 is 31 nM.

`NCCNC(=O)c1cn(C2CCCC2)c2nc(Nc3ccc(CCN4CCCC4)cc3)ncc2c1=O` [Cpd 44, 8-cyclopentyl-5-oxo-2-[4-(2-pyrrolidin-1-yl-ethyl)-phenylamino]-5,8-dihydro-pyrido[2,3-d]pyrimidine-6-carboxylic acid (2-amino-ethyl)-amide]: the IC50 amounted to 110 nM.

For the molecule `CONC(=O)c1cn(C2CCCC2)c2nc(Nc3ccc(C4CCNCC4)cc3)ncc2c1=O` [Cpd 45, 8-cyclopentyl-5-oxo-2-(4-piperidin-4-yl-phenylamino)-5,8-dihydro-pyrido[2,3-d]pyrimidine-6-carboxylic acid methoxy-amide], the 50% inhibitory concentration (IC50) came to 1.9 nM.

On to `CONC(=O)c1cn(C2CCCC2)c2nc(Nc3ccc(C4CCN(C(C)=O)CC4)cc3)ncc2c1=O` [Cpd 46, 2-[4-(1-acetyl-piperidin-4-yl)-phenylamino]-8-cyclopentyl-5-oxo-5,8-dihydro-pyrido[2,3-d]pyrimidine-6-carboxylic acid methoxy-amide], for which the IC50 came to 2.6 nM.

On to `CCONC(=O)c1cn(C2CCCC2)c2nc(Nc3ccc(C4CCN(C(C)=O)CC4)cc3)ncc2c1=O` [Cpd 47, 2-[4-(1-acetyl-piperidin-4-yl)-phenylamino]-8-cyclopentyl-5-oxo-5,8-dihydro-pyrido[2,3-d]pyrimidine-6-carboxylic acid ethoxy-amide], for which the IC50 was found to be 1.9 nM.

On to `CONC(=O)c1cn(C2CCCC2)c2nc(Nc3ccc(CCN4CCN(C)CC4)cc3)ncc2c1=O` [Cpd 48, 8-cyclopentyl-2-{4-[2-(4-methyl-piperazin-1-yl)-ethyl]-phenylamino}-5-oxo-5,8-dihydro-pyrido[2,3-d]pyrimidine-6-carboxylic acid methoxy-amide], for which the IC50 came out at 1.5 nM.

For `CCONC(=O)c1cn(C2CCCC2)c2nc(Nc3ccc(CCN4CCN(C)CC4)cc3)ncc2c1=O` [Cpd 49, 8-cyclopentyl-2-{4-[2-(4-methyl-piperazin-1-yl)-ethyl]-phenylamino}-5-oxo-5,8-dihydro-pyrido[2,3-d]pyrimidine-6-carboxylic acid ethoxy-amide], the IC50 worked out at 1.7 nM.
